Tested on: INF-β transcripts
Experiment: Inhibition of LPS induction of INF-β transcripts in macrophages (rt-PCR)
Format: cell-based, Murine
Settings: 0.5 μM-2 μM
Description: (§1) Murine macrophages were treated with LPS in the presence of various exemplary compounds described above. Subsequently, the cells were harvested and the transcripts for IL-6, iNOS, and INF-β quantified via rt-PCR. IC50 is the concentration of the compounds required to inhibit 50% of the mRNA transcripts induced by LPS. TC50 is the concentration of the compounds required to diminish the MTS signal by 50% (MTS signal correlates with cell metabolism/viability). Therapeutic Index (TI) is the ratio of TC50 to IC50.
(§2) In TABLE 4, data are provided that show effects of exemplary compounds described above on the inhibition of LPS induction of IL-6, iNOS, and INF-β transcripts in macrophages. The IL-6, iNOS, and INF-β transcripts are key mediators in a plethora of signaling networks that are involved in normal physiology and pathological processes. The mechanism by which LPS induces the IL-6, iNOS, and INF-β transcripts is via a network of signaling events. […] Data in TABLE 4 that was not calculatable is noted “NC.”
For OC1(c2ccccc2)CSC(=S)N1Cc1cccc(CN2C(=S)SCC2(O)c2ccccc2)c1 (centres unmarked) [COB-186], the “INF-β inhibition printed in IC50 column” value was 40%.

Same assay, conditions: LPS-treated murine macrophages, mRNA transcripts by rt-PCR
Work on C=CCn1c(-c2ccccc2)csc1=S [COB-217] yielded an IC50 of roughly 10 µM.

Same assay, conditions: Mus musculus, Macrophage; LPS-treated murine macrophages, mRNA transcripts by rt-PCR
For COc1cccc(-c2c[nH]c(=S)n2C)c1 [COB-117], the IC50 was 22 µM.
In the case of Cn1c(-c2cccc(Cl)c2)c[nH]c1=S [COB-119], the IC50 is reported as 46 µM.
Work on COc1ccc(-c2c[nH]c(=S)n2C)cc1OC [COB-123] yielded an IC50 of 21 µM.
In the case of CCn1c(-c2cccc(Cl)c2)c[nH]c1=O [COB-125], the IC50 is reported as 36 µM.
For COc1ccc(-c2c[nH]c(=S)n2C)c(OC)c1 [COB-130], the IC50 was 47 µM.
In the case of COc1ccc(OC)c(-c2c[nH]c(=S)n2C)c1 [COB-132], the IC50 is reported as 85 µM.
Cn1c(-c2ccc(OC(F)(F)F)cc2)c[nH]c1=S [COB-134] showed an IC50 of 135 µM.
For COc1ccc(OC)c(C2(O)CSC(=S)N2Cc2ccccc2)c1 (centres unmarked) [COB-143], the IC50 was 1 µM.
Work on OC1(c2ccccc2)CSC(=S)N1Cc1cccnc1 (centres unmarked) [COB-152] yielded an IC50 of 0.156 µM.
Work on OC1(c2ccccc2)CSC(=S)N1CCCc1ccccc1 (centres unmarked) [COB-168] yielded an IC50 of 1.5 µM.
For S=c1scc(-c2ccccc2)n1CCc1ccccc1 [COB-177], the IC50 was 13 µM.
With OC1(c2ccccc2)CSC(=S)N1Cc1nc2ccccc2[nH]1 (centres unmarked) [COB-183] the IC50 was 8 µM.
OC1(c2ccccc2)CSC(=S)N1Cc1ccncc1 (centres unmarked) [COB-187] showed an IC50 of 0.125 µM.
Work on OC1(c2ccccc2)CSC(=S)N1Cc1ccc2[nH]ccc2c1 (centres unmarked) [COB-188] yielded an IC50 of 0.25 µM.
Oc1cccc(C2(O)CSC(=S)N2Cc2ccccc2)c1 (centres unmarked) [COB-196] gave an IC50 of 0.375 µM.
In the case of COc1ccc(OC)c(C2(O)CSC(=S)N2Cc2cccnc2)c1 (centres unmarked) [COB-197], the IC50 is reported as 2.5 µM.
With Oc1cccc(C2(O)CSC(=S)N2Cc2cccnc2)c1 (centres unmarked) [COB-198] the IC50 was 0.2 µM.
With COc1ccc(C2(O)CSC(=S)N2Cc2cccnc2)c(OC)c1 (centres unmarked) [COB-199] the IC50 was greater than 5 µM.

Tested on: iNOS transcripts
Experiment: Inhibition of LPS induction of iNOS transcripts in macrophages (rt-PCR)
Format: cell-based
Settings: LPS-treated murine macrophages, mRNA transcripts by rt-PCR
Description: as §1, §2
In the case of C=CCn1c(-c2ccccc2)csc1=S [COB-217], the IC50 is reported as roughly 10 µM.

Same assay, conditions: Mus musculus, Macrophage; LPS-treated murine macrophages, mRNA transcripts by rt-PCR
With COc1cccc(-c2c[nH]c(=S)n2C)c1 [COB-117] the IC50 was 36 µM.
In the case of Cn1c(-c2cccc(Cl)c2)c[nH]c1=S [COB-119], the IC50 is reported as 60 µM.
COc1ccc(-c2c[nH]c(=S)n2C)cc1OC [COB-123] showed an IC50 of 55 µM.
In the case of CCn1c(-c2cccc(Cl)c2)c[nH]c1=O [COB-125], the IC50 is reported as 43 µM.
COc1ccc(-c2c[nH]c(=S)n2C)c(OC)c1 [COB-130] showed an IC50 of 26 µM.
Work on COc1ccc(OC)c(-c2c[nH]c(=S)n2C)c1 [COB-132] yielded an IC50 of 38 µM.
Work on Cn1c(-c2ccc(OC(F)(F)F)cc2)c[nH]c1=S [COB-134] yielded an IC50 of 87 µM.
COc1ccc(OC)c(C2(O)CSC(=S)N2Cc2ccccc2)c1 (centres unmarked) [COB-143] gave an IC50 of 3 µM.
In the case of OC1(c2ccccc2)CSC(=S)N1Cc1cccnc1 (centres unmarked) [COB-152], the IC50 is reported as 0.156 µM.
In the case of OC1(c2ccccc2)CSC(=S)N1CCCc1ccccc1 (centres unmarked) [COB-168], the IC50 is reported as 1.5 µM.
In the case of S=c1scc(-c2ccccc2)n1CCc1ccccc1 [COB-177], the IC50 is reported as 32 µM.
In the case of OC1(c2ccccc2)CSC(=S)N1Cc1nc2ccccc2[nH]1 (centres unmarked) [COB-183], the IC50 is reported as 9.5 µM.
For OC1(c2ccccc2)CSC(=S)N1Cc1cccc(CN2C(=S)SCC2(O)c2ccccc2)c1 (centres unmarked) [COB-186], the IC50 was 1.9 µM.
With OC1(c2ccccc2)CSC(=S)N1Cc1ccncc1 (centres unmarked) [COB-187] the IC50 was 0.375 µM.
OC1(c2ccccc2)CSC(=S)N1Cc1ccc2[nH]ccc2c1 (centres unmarked) [COB-188] showed an IC50 of 0.25 µM.
Oc1cccc(C2(O)CSC(=S)N2Cc2ccccc2)c1 (centres unmarked) [COB-196] showed an IC50 of 0.5 µM.
Compound COc1ccc(OC)c(C2(O)CSC(=S)N2Cc2cccnc2)c1 (centres unmarked) [COB-197] has an IC50 of 2.5 µM.
Work on Oc1cccc(C2(O)CSC(=S)N2Cc2cccnc2)c1 (centres unmarked) [COB-198] yielded an IC50 of 0.15 µM.
COc1ccc(C2(O)CSC(=S)N2Cc2cccnc2)c(OC)c1 (centres unmarked) [COB-199] showed an IC50 of 2.2 µM.

Tested on: Murine macrophages
Experiment: MTS signal (cell metabolism/viability)
Format: cell-based
Settings: not given
Description: as §1
In the case of C=CCn1c(-c2ccccc2)csc1=S [COB-217], the “MTS signal decrease” value is reported as 30%.

Tested on: not listed separately
Experiment: MTS signal (cell metabolism/viability)
Format: cell-based, Murine
Settings: mouse, murine macrophages; concentration required to diminish the MTS signal by 50%; read-out: Average TC50
Description: as §1
In the case of Cn1c(-c2cccc(Cl)c2)c[nH]c1=S [COB-119], the CC50 is reported as 390 µM.
In the case of CCn1c(-c2cccc(Cl)c2)c[nH]c1=O [COB-125], the CC50 is reported as 500 µM.
Compound COc1ccc(OC)c(-c2c[nH]c(=S)n2C)c1 [COB-132] has a CC50 of 360 µM.
For COc1ccc(OC)c(C2(O)CSC(=S)N2Cc2ccccc2)c1 (centres unmarked) [COB-143], the CC50 was 23 µM.
For OC1(c2ccccc2)CSC(=S)N1Cc1cccnc1 (centres unmarked) [COB-152], the CC50 was 18 µM.
OC1(c2ccccc2)CSC(=S)N1CCCc1ccccc1 (centres unmarked) [COB-168] gave a CC50 of 12 µM.
With OC1(c2ccccc2)CSC(=S)N1Cc1nc2ccccc2[nH]1 (centres unmarked) [COB-183] the CC50 was greater than 50 µM.
OC1(c2ccccc2)CSC(=S)N1Cc1cccc(CN2C(=S)SCC2(O)c2ccccc2)c1 (centres unmarked) [COB-186] showed a CC50 of 4 µM.
In the case of OC1(c2ccccc2)CSC(=S)N1Cc1ccncc1 (centres unmarked) [COB-187], the CC50 is reported as 15 µM.
For OC1(c2ccccc2)CSC(=S)N1Cc1ccc2[nH]ccc2c1 (centres unmarked) [COB-188], the CC50 was 13 µM.
Compound Oc1cccc(C2(O)CSC(=S)N2Cc2ccccc2)c1 (centres unmarked) [COB-196] has a CC50 of 17 µM.
In the case of Oc1cccc(C2(O)CSC(=S)N2Cc2cccnc2)c1 (centres unmarked) [COB-198], the CC50 is reported as 17 µM.
Compound COc1ccc(C2(O)CSC(=S)N2Cc2cccnc2)c(OC)c1 (centres unmarked) [COB-199] has a CC50 of 23 µM.

Tested on: IL-6 transcripts
Experiment: Inhibition of LPS induction of IL-6 transcripts in macrophages (rt-PCR)
Format: cell-based, Murine
Settings: 0.03 μM-2 μM
Description: as §1, §2
For OC1(c2ccccc2)CSC(=S)N1Cc1cccc(CN2C(=S)SCC2(O)c2ccccc2)c1 (centres unmarked) [COB-186], the “IL-6 inhibition printed in IC50 column” value was less than 30%.

Same assay, conditions: LPS-treated murine macrophages, mRNA transcripts by rt-PCR
For C=CCn1c(-c2ccccc2)csc1=S [COB-217], the IC50 was 8.2 µM.

Same assay, conditions: Mus musculus, Macrophage; LPS-treated murine macrophages, mRNA transcripts by rt-PCR
In the case of COc1cccc(-c2c[nH]c(=S)n2C)c1 [COB-117], the IC50 is reported as 30 µM.
For Cn1c(-c2cccc(Cl)c2)c[nH]c1=S [COB-119], the IC50 was 45 µM.
With COc1ccc(-c2c[nH]c(=S)n2C)cc1OC [COB-123] the IC50 was 19 µM.
With CCn1c(-c2cccc(Cl)c2)c[nH]c1=O [COB-125] the IC50 was 31 µM.
In the case of COc1ccc(-c2c[nH]c(=S)n2C)c(OC)c1 [COB-130], the IC50 is reported as 29 µM.
COc1ccc(OC)c(-c2c[nH]c(=S)n2C)c1 [COB-132] showed an IC50 of 26 µM.
Cn1c(-c2ccc(OC(F)(F)F)cc2)c[nH]c1=S [COB-134] gave an IC50 of 66 µM.
In the case of COc1ccc(OC)c(C2(O)CSC(=S)N2Cc2ccccc2)c1 (centres unmarked) [COB-143], the IC50 is reported as 13 µM.
For OC1(c2ccccc2)CSC(=S)N1Cc1cccnc1 (centres unmarked) [COB-152], the IC50 was 4.25 µM.
With OC1(c2ccccc2)CSC(=S)N1CCCc1ccccc1 (centres unmarked) [COB-168] the IC50 was 17 µM.
Compound S=c1scc(-c2ccccc2)n1CCc1ccccc1 [COB-177] has an IC50 of 8 µM.
For OC1(c2ccccc2)CSC(=S)N1Cc1nc2ccccc2[nH]1 (centres unmarked) [COB-183], the IC50 was 19 µM.

Reference: patent publication US10633377B2, “Imidazole and thiazole compositions for modifying biological signaling” (Ohio University, priority 2014, dated 2020)
